PMC11859905, “Flavonoids as Potential Modulators of Pancreatic Lipase Catalytic Activity” (Pharmaceutics, 2025)
Where two headings read alike, the source gives them in different places.

Key:
human pancreatic lipase [1] = target: T1, human pancreatic lipase (Homo sapiens, UniProt P16233); experiment: In vitro assay using human pancreatic lipase (4-MUO hydrolysis, fluorometric); format: biochemical; conditions: for IC50: human PL 2 U/mL, 4-MUO 0.05 mM, mean ± SEM;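 for all read-outs here: Read-out is the initial rate of fluorescent 4-MU release as HPL cleaves the 4-MUO substrate, a rate that scales with the amount of enzyme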
T1 construct: PL from the human pancreas (triacylglycerol acyl hydrolase, EC 3.1.1.3); from tissue; host or cells: human pancreas
T1 sequence (P16233 17-465): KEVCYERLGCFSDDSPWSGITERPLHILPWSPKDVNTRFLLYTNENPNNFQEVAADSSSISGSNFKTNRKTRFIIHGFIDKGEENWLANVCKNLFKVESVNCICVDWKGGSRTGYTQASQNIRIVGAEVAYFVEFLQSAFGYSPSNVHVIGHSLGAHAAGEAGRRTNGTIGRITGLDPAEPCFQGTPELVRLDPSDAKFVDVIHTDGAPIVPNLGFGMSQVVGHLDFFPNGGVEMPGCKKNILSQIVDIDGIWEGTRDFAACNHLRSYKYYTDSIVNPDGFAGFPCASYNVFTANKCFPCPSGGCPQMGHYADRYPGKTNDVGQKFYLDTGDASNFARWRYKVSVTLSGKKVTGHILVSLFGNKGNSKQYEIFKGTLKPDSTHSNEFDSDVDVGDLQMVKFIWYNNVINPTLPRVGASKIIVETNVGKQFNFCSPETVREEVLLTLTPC

[2] = target: T2, porcine pancreatic lipase (Sus scrofa, UniProt P00591); experiment: In vitro assay using porcine pancreatic lipase (4-MUO hydrolysis, fluorometric);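 note: product 4-methylumbeliferone formation tracked fluorometrically, catalytic rate from RFU slope over the 10–30 min window, compounds checked beforehand for own fluorescence, at least three independent experiments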
T2 sequence (P00591 1-450): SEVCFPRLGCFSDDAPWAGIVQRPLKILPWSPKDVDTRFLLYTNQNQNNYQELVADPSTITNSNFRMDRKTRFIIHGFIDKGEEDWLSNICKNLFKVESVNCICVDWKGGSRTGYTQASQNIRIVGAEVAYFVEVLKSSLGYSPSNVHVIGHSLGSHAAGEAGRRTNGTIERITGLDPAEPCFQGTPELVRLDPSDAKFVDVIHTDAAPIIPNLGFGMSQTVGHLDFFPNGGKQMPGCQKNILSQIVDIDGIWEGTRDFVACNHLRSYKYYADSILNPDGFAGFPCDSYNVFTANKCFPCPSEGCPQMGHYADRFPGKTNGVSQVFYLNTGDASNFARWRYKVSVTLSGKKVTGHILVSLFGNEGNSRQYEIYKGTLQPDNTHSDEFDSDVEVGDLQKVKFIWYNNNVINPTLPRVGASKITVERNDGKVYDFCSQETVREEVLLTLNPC

[3] = target: T2, porcine pancreatic lipase; experiment: Inhibition kinetics of porcine pancreatic lipase (nonlinear regression, Solver); format: biochemical; design: compare it to the effects of the porcine pancreas (type II, EC 3.1.1.3); from tissue; host or cells: porcine pancreas (type II preparation); conditions: for Inhibition Model / Ki / Vmax: porcine pancreatic lipase; for Ki / Vmax: ± SEM; for Vmax: in µmol/min
human pancreatic lipase [4] = target: T1, human pancreatic lipase; experiment: Inhibition kinetics of human pancreatic lipase (nonlinear regression, Solver); format: biochemical
[5] = target: T2, porcine pancreatic lipase; design: compare it to the effects of the porcine pancreas (type II, EC 3.1.1.3); from tissue; host or cells: porcine pancreas (type II preparation); conditions: not calculated in this paper; cited from earlier work
[6] = competitive constant, read-out: Kic

SMILES | inhibition at 100 µM (human pancreatic lipase [1]; at 100 μM, read-out: PL Inhibition (%) ± SEM, Human) [%] | IC50 [2] [µM] | Inhibition Model [3] | Ki [3, 6] [µM] | Vmax [3] | Inhibition Model (human pancreatic lipase [4]; human pancreatic lipase) | Ki (human pancreatic lipase [4]; human pancreatic lipase, first Kic column of Table 4, ± SEM) [µM] | Vmax (human pancreatic lipase [4]; human pancreatic lipase, ± SEM) | potency against HPL from Kic, times higher than 38 (myricetin) (human pancreatic lipase [4]; versus 38) | IC50 (human pancreatic lipase [1]) [µM] | binding affinity to PPL, times higher than the other compounds (from Kic) ([3]; versus 38, 27 and 41) | Ki ([3]; uncompetitive constant, read-out: Kiu) [µM] | type of PL inhibition [5]
O=C(O[C@@H]1Cc2c(O)cc(O)cc2O[C@@H]1c1cc(O)c(O)c(O)c1)c1cc(O)c(O)c(O)c1 [Flavonoid 41, (–)-Epigallocatechin gallate] | < 30 | 32 ± 4 | Competitive | 21 ± 3 | 680 ± 7 | – | – | – | – | – | – | – | –
CCCCCCCCCCc1c(-c2ccc(O)c(O)c2)oc2cc(O)cc(O)c2c1=O [Flavonoid 30] | – | 7.3 ± 0.6 | Competitive | 1.78 ± 0.04 | 507 ± 4 | mixed-type | 1.3 ± 0.3 | 260 ± 10 | approximately 60 | 3.2 ± 0.1 | approximately 10 | – | –
O=c1c(O)c(-c2cc(O)c(O)c(O)c2)oc2cc(O)cc(O)c12 [Flavonoid 38, Myricetin] | – | 16 ± 1 | – | 12 ± 0.8 | – | Noncompetitive | – | – | – | 25 ± 2 | – | 58 ± 3 | –
CCCCCCCCCCC[C@@H](C[C@@H]1OC(=O)[C@H]1CCCCCC)OC(=O)[C@H](CC(C)C)NC=O [Orlistat] | – | – | – | – | – | – | – | – | – | – | – | – | irreversible
